Measured values as given in US9062050B2, “Inhibitor of JAK1 and JAK2” (Eli Lilly and Company, priority 2012, dated 2015).

Target: JAK2 (Homo sapiens, UniProt O60674)
Assay: JAK LanthaScreen Kinase Assay (TR-FRET), JAK2
Assay type: biochemical
Set-up: purchased Life Technologies #PV4844
Settings: enzyme assay, 5 micromolar ATP, n=1; read-out: IC50 against JAK2
Description: The JAK LanthaScreen™ Kinase Assay (Life Technologies, #PV4844) is used to determine compound IC50 values against the JAK1, JAK2, and JAK3 kinases. This kinase assay is a Time Resolved Fluorescence Resonance Energy Transfer (TR-FRET) assay format that uses long-lifetime terbium (Tb) labeled antibody as the donor species and Green Fluorescent Protein-Signal Transducers and Activators of Transcription (GFP-STAT1) as the acceptor species.
The TR-FRET ratio is used to monitor JAK1, JAK2, or JAK3 activity where an increase in phosphorylation of the GFP-STAT1 results in an increase in the TR-FRET ratio. Perform the kinase reaction using a 12.5 microliter reaction volume in shallow black 384-well Proxiplate (PerkinElmer, #6008260). […] Incubate at room temperature for 90 minutes, and read in an EnVision plate reader (PerkinElmer, #2104-0010) with 340 nm wavelength excitation filter and emission filters of 520 nm and 495 nm wavelengths. The ratio is derived from the emission wavelength for the GFP-STAT1 which is measured at 520 nanometer versus the emission at 495 nanometer for the Tb-anti-pSTAT1[pTyr701]. Derive the IC50 value for the compound using percent inhibition data, which is calculated from the reaction data relative to on-plate controls (active enzyme versus 2.0 micromolar control-inhibited enzyme). […]

Sequence of JAK2 (O60674 whole entry): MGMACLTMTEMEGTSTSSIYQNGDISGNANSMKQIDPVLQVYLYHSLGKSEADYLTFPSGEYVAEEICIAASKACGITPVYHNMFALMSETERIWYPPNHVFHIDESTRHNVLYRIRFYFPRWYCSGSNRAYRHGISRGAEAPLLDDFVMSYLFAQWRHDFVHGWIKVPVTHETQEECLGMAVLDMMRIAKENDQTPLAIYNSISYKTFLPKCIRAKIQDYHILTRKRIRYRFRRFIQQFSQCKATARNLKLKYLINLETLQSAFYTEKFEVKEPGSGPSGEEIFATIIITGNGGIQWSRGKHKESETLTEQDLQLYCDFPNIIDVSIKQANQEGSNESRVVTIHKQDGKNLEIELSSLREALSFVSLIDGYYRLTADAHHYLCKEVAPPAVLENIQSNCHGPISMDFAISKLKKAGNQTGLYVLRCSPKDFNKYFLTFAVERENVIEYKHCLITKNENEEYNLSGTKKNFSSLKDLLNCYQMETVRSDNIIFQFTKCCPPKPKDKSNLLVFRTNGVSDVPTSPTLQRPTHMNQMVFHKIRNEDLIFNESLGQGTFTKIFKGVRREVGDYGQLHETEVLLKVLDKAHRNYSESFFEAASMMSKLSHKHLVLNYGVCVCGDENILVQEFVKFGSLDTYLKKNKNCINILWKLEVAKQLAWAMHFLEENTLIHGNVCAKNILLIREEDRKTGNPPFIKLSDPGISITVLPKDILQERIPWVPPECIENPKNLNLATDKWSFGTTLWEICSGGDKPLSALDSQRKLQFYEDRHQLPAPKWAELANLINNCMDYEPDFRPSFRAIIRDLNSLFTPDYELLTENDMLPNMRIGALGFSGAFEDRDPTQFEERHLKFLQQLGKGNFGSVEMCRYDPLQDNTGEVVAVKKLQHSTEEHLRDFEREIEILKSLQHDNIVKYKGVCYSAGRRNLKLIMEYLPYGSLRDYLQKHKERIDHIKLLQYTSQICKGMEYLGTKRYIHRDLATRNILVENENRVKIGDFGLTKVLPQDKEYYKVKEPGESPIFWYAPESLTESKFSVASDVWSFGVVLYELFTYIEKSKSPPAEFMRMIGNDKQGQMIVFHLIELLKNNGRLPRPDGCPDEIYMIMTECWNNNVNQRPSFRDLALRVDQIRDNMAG

Cc1cc(Nc2ccc3ncn([C@@H]4CCc5ccc(F)cc54)c3n2)[nH]n1.Cl.Cl [Example 1, 3-[(1R)-6-fluoro-2,3-dihydro-1H-inden-1-yl]-N-(3-methyl-1H-pyrazol-5-yl)-3H-imidazo[4,5-b]pyridin-5-amine dihydrochloride]
IC50: 1.7 nM
